Measured values: patent US10918642B2, “N-(substituted-phenyl)-sulfonamide derivatives as kinase inhibitors” (Nerviano Medical Sciences S.R.L., priority 2016, dated 2021)

Target: PERK recombinant enzyme (cytoplasmic domain corresponding to residues 540-1115) (Homo sapiens (Human), UniProt Q9NZJ5)
Test: PERK enzyme assay, Method 1: ADP-Glo Kinase Assay (quantification of ADP formed)
Assay type: biochemical
Details: 52 microM ATP, 8 nM PERK, 300 microM eIF2alpha peptide substrate, 60 minutes at room temperature
Procedure: The biochemical activity of compounds was determined by incubation with PERK recombinant enzyme (cytoplasmic domain corresponding to residues 540-1115) and elF2alpha peptide substrate (Aminoacid sequence: LLSELSRRRIRSINK—SEQ ID Nr: 1; purchased from American Peptide Company, product #341923). This was followed by:
Method 1: Quantification of the ADP Tormed from the Kinase Reaction by ADP-Glo™ Kinase Assay (Promega Cat. 9102). Utra Pure ATP was Included into ADP-Glo™ Kinase Assay kit.
Compounds were 3-fold serially diluted in order to obtain from 3.333 to 0.000169 microM final concentration, then incubated for 60 minutes at room temperature in the presence of ATP, substrate and enzyme in a final volume of 15 microL of kinase buffer in 384-well plates (Perkin Elmer cat. #6007290).
The final concentration of the different reagents is 52 microM ATP, 8 nM PERK, 300 microM substrate, 50 mM Hepes pH 7.5, 3 mM MgCl2, 1 mM DTT, 3 microM Na3VO4, 0.2 mg/ml BSA, 1% DMSO.
After 60 minutes, an equal volume (15 microL) of ADP-Glo™ Reagent was added to each well to terminate the kinase reaction and deplete the remaining ATP. After 40 minutes, 30 microL of Kinase Detection Reagent is added, which simultaneously converts ADP to ATP and allows the newly synthesized ATP to be measured using a coupled luciferase/luciferin reaction. After further 40 minutes luminescence was read by ViewLux Instrument (Perkin Elmer). The data are analyzed by GraphPad Prism software which provides sigmoidal fittings of the curves for IC50 determination using a 4 parameter logistic equation: y=bottom+(top−bottom)/(1+10^((log IC50−x)*slope))
where x is the logarithm of the inhibitor concentration, y is the response; y starts at bottom and goes to top with a sigmoid shape.

Chain of PERK recombinant enzyme (cytoplasmic domain corresponding to residues 540-1115) (Q9NZJ5 540-1115): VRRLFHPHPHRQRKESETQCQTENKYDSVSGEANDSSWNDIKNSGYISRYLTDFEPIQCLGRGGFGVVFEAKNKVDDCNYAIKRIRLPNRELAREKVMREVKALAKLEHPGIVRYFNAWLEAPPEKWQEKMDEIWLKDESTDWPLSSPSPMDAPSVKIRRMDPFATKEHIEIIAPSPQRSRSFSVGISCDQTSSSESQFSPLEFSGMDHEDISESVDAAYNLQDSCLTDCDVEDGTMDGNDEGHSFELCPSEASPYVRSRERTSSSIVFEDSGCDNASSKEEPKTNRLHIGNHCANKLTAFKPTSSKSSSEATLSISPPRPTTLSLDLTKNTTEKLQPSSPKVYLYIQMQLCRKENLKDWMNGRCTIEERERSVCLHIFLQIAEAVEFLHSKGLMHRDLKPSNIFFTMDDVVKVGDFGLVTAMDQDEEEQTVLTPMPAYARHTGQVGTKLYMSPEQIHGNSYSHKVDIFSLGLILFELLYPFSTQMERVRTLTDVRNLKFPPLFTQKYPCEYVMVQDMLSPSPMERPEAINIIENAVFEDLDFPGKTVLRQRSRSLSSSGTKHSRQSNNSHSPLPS

| pIC50 | IC50 [nM] | Structure (SMILES) |
| --- | --- | --- |
| A (7.3 ≤ pIC50 < 7.8) | – | COc1ccc(S(=O)(=O)Nc2cccc(-c3cn(C)c4ncnc(N)c34)c2F)cc1Cl [cmpd 1, N-[3-(4-Amino-7-methyl-7H-pyrrolo[2,3-d]pyrimidin-5-yl)-2-fluoro-phenyl]-3-chloro-4-methoxy-benzenesulfonamide] |
| AA (7.8 ≤ pIC50) | – | COc1ccc(S(=O)(=O)Nc2cccc(-c3cn(C(C)C)c4ncnc(N)c34)c2F)cc1Cl [cmpd 2, N-[3-(4-Amino-7-isopropyl-7H-pyrrolo[2,3-d]pyrimidin-5-yl)-2-fluoro-phenyl]-3-chloro-4-methoxy-benzenesulfonamide] |
| – | 15.8 to 50.1 | COc1ccc(S(=O)(=O)Nc2cccc(-c3cn(C)c4ncnc(N)c34)c2F)cc1C [cmpd 12, N-[3-(4-Amino-7-methyl-7H-pyrrolo[2,3-d]pyrimidin-5-yl)-2-fluoro-phenyl]-4-methoxy-3-methyl-benzenesulfonamide] |
| – | 50.1 to 158 | COc1ccc(S(=O)(=O)Nc2cccc(-c3cn(C)c4ncnc(N)c34)c2F)cc1 [cmpd 14, N-[3-(4-Amino-7-methyl-7H-pyrrolo[2,3-d]pyrimidin-5-yl)-2-fluoro-phenyl]-4-methoxy-benzenesulfonamide] |
| – | 50.1 to 158 | COc1ccc(S(=O)(=O)Nc2cccc(-c3cn(C)c4ncnc(N)c34)c2F)cc1OC [cmpd 17, N-[3-(4-Amino-7-methyl-7H-pyrrolo[2,3-d]pyrimidin-5-yl)-2-fluoro-phenyl]-3,4-dimethm-benzenesulfonamide] |
| AA (7.8 ≤ pIC50) | – | COc1cc(F)c(S(=O)(=O)Nc2cccc(-c3cn(C)c4ncnc(N)c34)c2F)cc1Cl [cmpd 24, N-[3-(4-Amino-7-methyl-7H-pyrrolo[2,3-d]pyrimidin-5-yl)-2-fluoro-phenyl]-5-chloro-2-fluoro-4-methoxy-benzenesulfonamide] |
| – | 15.8 to 50.1 | Cn1cc(-c2cccc(NS(=O)(=O)c3ccc(Cl)c(Cl)c3)c2F)c2c(N)ncnc21 [cmpd 25, N-[3-(4-Amino-7-methyl-7H-pyrrolo[2,3-d]pyrimidin-5-yl)-2-fluoro-phenyl]-3,4-dichloro-benzenesulfonamide] |
| – | 15.8 to 50.1 | CCOc1ccc(S(=O)(=O)Nc2cccc(-c3cn(C)c4ncnc(N)c34)c2F)cc1C [cmpd 28, N-[3-(4-Amino-7-methyl-7H-pyrrolo[2,3-d]pyrimidin-5-yl)-2-fluoro-phenyl]-4-ethoxy-3-methyl-benzenesulfonamide] |
| C (pIC50 < 6.8) | – | Cc1cc(S(=O)(=O)Nc2cccc(-c3cn(C)c4ncnc(N)c34)c2F)ccc1OC(C)C [cmpd 30, N-[3-(4-Amino-7-methyl-7H-pyrrolo[2,3-d]pyrimidin-5-yl)-2-fluoro-phenyl]-4-isopropoxy-3-methyl-benzenesulfonamide] |

The remaining lines, values behind:

| Structure (SMILES) | pIC50 | IC50 [nM] |
| --- | --- | --- |
| COc1cc(F)c(S(=O)(=O)Nc2cccc(-c3cn(C4CCN(C)CC4)c4ncnc(N)c34)c2F)cc1Cl [cmpd 3, N-{3-[4-Amino-7-(1-methyl-piperidin-4-yl)-7H-pyrrolo[2,3-d]pyrimidin-5-yl]-2-fluoro-phenyl}-5-chloro-2-fluoro-4-methoxy-benzenesulfonamide] | AA (7.8 ≤ pIC50) | – |
| COc1ccc(S(=O)(=O)Nc2cccc(-c3cn(C4CCN(C)CC4)c4ncnc(N)c34)c2F)cc1Cl [cmpd 4, N-{3-[4-Amino-7-(1-methyl-piperidin-4-yl)-7H-pyrrolo[2,3-d]pyrimidin-5-yl]-2-fluoro-phenyl}-3-chloro-4-methoxy-benzenesulfonamide] | AA (7.8 ≤ pIC50) | – |
| COc1ccc(S(=O)(=O)Nc2cccc(-c3cn(C4CCN(C5CC5)CC4)c4ncnc(N)c34)c2F)cc1Cl [cmpd 5, N-{3-[4-Amino-7-(1-cyclopropyl-piperidin-4-yl)-7H-pyrrolo[2,3-d]pyrimidin-5-yl]-2-fluoro-phenyl}-3-chloro-4-methoxy-benzenesulfonamide] | – | 15.8 to 50.1 |
| COc1ccc(S(=O)(=O)Nc2cccc(-c3cn(C4CCN(C(C)C)CC4)c4ncnc(N)c34)c2F)cc1Cl [cmpd 6, N-{3-[4-Amino-7-(1-isopropyl-piperidin-4-yl)-7H-pyrrolo[2,3-d]pyrimidin-5-yl]-2-fluoro-phenyl}-3-chloro-4-methoxy-benzenesulfonamide] | AA (7.8 ≤ pIC50) | – |
| COc1cc(F)c(S(=O)(=O)Nc2cccc(-c3nn(C)c4ncnc(N)c34)c2F)cc1Cl [cmpd 9, N-[3-(4-Amino-1-methyl-1H-pyrazolo[3,4-d]pyrimidin-3-yl)-2-fluoro-phenyl]-5-chloro-2-fluoro-4-methoxy-benzenesulfonamide] | AA (7.8 ≤ pIC50) | – |
| Cn1cc(-c2cccc(NS(=O)(=O)c3cccc(Cl)c3)c2F)c2c(N)ncnc21 [cmpd 13, N-[3-(4-Amino-7-methyl-7H-pyrrolo[2,3-d]pyrimidin-5-yl)-2-fluoro-phenyl]-3-chloro-benzenesulfonamide] | AA (7.8 ≤ pIC50) | – |
| Cn1cc(-c2cccc(NS(=O)(=O)c3ccc(C(F)(F)F)cc3)c2F)c2c(N)ncnc21 [cmpd 15, N-[3-(4-Amino-7-methyl-7H-pyrrolo[2,3-d]pyrimidin-5-yl)-2-fluoro-phenyl]-4-trifluoromethyl-benzenesulfonamide] | – | 50.1 to 158 |
| CN1CCOc2cc(S(=O)(=O)Nc3cccc(-c4cn(C)c5ncnc(N)c45)c3F)ccc21 [cmpd 18, 4-Methyl-3,4-dihydro-2H-benzo[1,4]oxazine-7-sulfonic acid [3-(4-amino-7-methyl-7H-pyrrolo[2,3-d]pyrimidin-5-yl)-2-fluoro-phenyl]-amide] | – | 50.1 to 158 |
| Cn1cc(-c2cccc(NS(=O)(=O)c3ccc([N+](=O)[O-])cc3)c2F)c2c(N)ncnc21 [cmpd 19, N-[3-(4-Amino-7-methyl-7H-pyrrolo[2,3-d]pyrimidin-5-yl)-2-fluoro-phenyl]-4-nitro-benzenesulfonamide] | – | 15.8 to 50.1 |
| Cn1cc(-c2cccc(NS(=O)(=O)c3ccc4ccccc4c3)c2F)c2c(N)ncnc21 [cmpd 20, Naphthalene-2-sulfonic acid [3-(4-amino-7-methyl-7H-pyrrolo[2,3-d]pyrimidin-5-yl)-2-fluoro-phenyl]-amide] | C (pIC50 < 6.8) | – |
| Cn1cc(-c2cccc(NS(=O)(=O)c3cc(F)ccc3F)c2F)c2c(N)ncnc21 [cmpd 21, N-[3-(4-Amino-7-methyl-7H-pyrrolo[2,3-d]pyrimidin-5-yl)-2-fluoro-phenyl]-2,5-difluoro-benzenesulfonamide] | C (pIC50 < 6.8) | – |
| Cn1cc(-c2cccc(NS(=O)(=O)c3ccc(Br)cc3F)c2F)c2c(N)ncnc21 [cmpd 22, N-[3-(4-Amino-7-methyl-7H-pyrrolo[2,3-d]pyrimidin-5-yl)-2-fluoro-phenyl]-4-bromo-2-fluoro-benzenesulfonamide] | – | 15.8 to 50.1 |
| Cn1cc(-c2cccc(NS(=O)(=O)c3c(F)cccc3F)c2F)c2c(N)ncnc21 [cmpd 23, N-[3-(4-Amino-7-methyl-7H-pyrrolo[2,3-d]pyrimidin-5-yl)-2-fluoro-phenyl]-2,6-difluoro-benzenesulfonamide] | – | 50.1 to 158 |
| Cn1cc(-c2cccc(NS(=O)(=O)c3cc(Cl)cc(Cl)c3)c2F)c2c(N)ncnc21 [cmpd 26, N-[2-(4-Amino-7-methyl-7H-pyrrolo[2,3-d]pyrimidin-5-yl)-2-fluoro-phenyl]-3,5-dichloro-benzenesulfonamide] | – | 15.8 to 50.1 |
| Cn1cc(-c2cccc(NS(=O)(=O)c3ccc4c(c3)CCO4)c2F)c2c(N)ncnc21 [cmpd 27, 2,3-Dihydro-benzofuran-5-sulfonic acid [3-(4-amino-7-methyl-7H-pyrrolo[2,3-d]pyrimidin-5-yl)-2-fluoro-phenyl]-amide] | AA (7.8 ≤ pIC50) | – |
| COc1c(C)cc(S(=O)(=O)Nc2cccc(-c3cn(C)c4ncnc(N)c34)c2F)cc1C [cmpd 29, N-[3-(4-Amino-7-methyl-7H-pyrrolo[2,3-d]pyrimidin-5-yl)-2-fluoro-phenyl]-4-methoxy-3,5-dimethyl-benzenesulfonamide] | – | 15.8 to 50.1 |
| Cn1cc(-c2cccc(NS(=O)(=O)c3cc(F)c(F)c(F)c3)c2F)c2c(N)ncnc21 [cmpd 32, N-[3-(4-Amino-7-methyl-7H-pyrrolo[2,3-d]pyrimidin-5-yl)-2-fluoro-phenyl]-3,4,5-trifluoro-benzenesulfonamide] | – | 15.8 to 50.1 |
| Cn1cc(-c2cccc(NS(=O)(=O)c3cnc(Cl)c(Br)c3)c2F)c2c(N)ncnc21 [cmpd 33, 5-Bromo-6-chloro-pyridine-3-sulfonic acid [3-(4-amino-7-methyl-7H-pyrrolo[2,3-d]pyrimidin-5-yl)-2-fluoro-phenyl]-amide] | – | 15.8 to 50.1 |
| COc1ccc(S(=O)(=O)Nc2cccc(-c3nn(C)c4ncnc(N)c34)c2F)cc1C [cmpd 34, N-[3-(4-Amino-1-methyl-1H-pyrazolo[3,4-d]pyrimidin-3-yl)-2-fluoro-phenyl]-4-methoxy-3-methyl-benzenesulfonamide] | – | 15.8 to 50.1 |
| COc1ccc(S(=O)(=O)Nc2cccc(-c3nn(C)c4ncnc(N)c34)c2F)cc1Cl [cmpd 35, N-[3-(4-Amino-1-methyl-1H-pyrazolo[3,4-d]pyrimidin-3-yl)-2-fluoro-phenyl]-3-chloro-4-methoxy-benzenesulfonamide] | AA (7.8 ≤ pIC50) | – |
